Assay results from PubChem BioAssay AID248 (DTP/NCI, 2004).
Inconclusive results and toxic doses are left out. No stated cut-off is given here; in the data, active means T/C of 150% or more; inactive means T/C below 125%.

System: L1210 leukemia ip in BDF1 mice, survival T/C
Experiment: NCI In Vivo Anticancer Drug Screen. Data for tumor model L1210 Leukemia (intraperitoneal) in B6D2F1 (BDF1) mice
Settings: endpoint: mean survival time, higher = longer survival
How it was run: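 In this screen, tumor-bearing mice given compound are compared to those given vehicle, and their survival values are reported as a treated-to-control quotient.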

[1] = dose: 25.0 mg/kg/injection, schedule: Q01DX009 (ip), vehicle: Klucel (hydroxypropylcellulose) (HPC)
[2] = dose: 50.0 mg/kg/injection, schedule: Q01DX009 (ip), vehicle: Klucel (hydroxypropylcellulose) (HPC)
[3] = dose: 100.0 mg/kg/injection, schedule: Q01DX009 (ip), vehicle: Klucel (hydroxypropylcellulose) (HPC)
[4] = dose: 100.0 mg/kg/injection, schedule: Q04DX003 (ip), vehicle: Klucel (hydroxypropylcellulose) (HPC)
[5] = dose: 200.0 mg/kg/injection, schedule: Q01DX009 (ip), vehicle: Klucel (hydroxypropylcellulose) (HPC)
[6] = dose: 200.0 mg/kg/injection, schedule: Q04DX003 (ip), vehicle: Klucel (hydroxypropylcellulose) (HPC)
[7] = dose: 400.0 mg/kg/injection, schedule: Q01DX009 (ip), vehicle: Klucel (hydroxypropylcellulose) (HPC)
[8] = dose: 400.0 mg/kg/injection, schedule: Q04DX003 (ip), vehicle: Klucel (hydroxypropylcellulose) (HPC)
[9] = dose: 100.0 mg/kg/injection, schedule: Q01DX009 (ip), vehicle: saline with Tween-80
[10] = dose: 200.0 mg/kg/injection, schedule: Q01DX009 (ip), vehicle: saline with Tween-80
[11] = dose: 400.0 mg/kg/injection, schedule: Q01DX009 (ip), vehicle: saline with Tween-80
[12] = dose: 100.0 mg/kg/injection, schedule: Q01DX001 (ip), vehicle: saline
[13] = dose: 200.0 mg/kg/injection, schedule: Q01DX001 (ip), vehicle: saline
[14] = dose: 400.0 mg/kg/injection, schedule: Q01DX001 (ip), vehicle: saline
[15] = dose: 100.0 mg/kg/injection, schedule: Q04DX003 (ip), vehicle: saline with Tween-80
[16] = dose: 200.0 mg/kg/injection, schedule: Q04DX003 (ip), vehicle: saline with Tween-80
[17] = dose: 400.0 mg/kg/injection, schedule: Q04DX003 (ip), vehicle: saline with Tween-80

Measured: T/C

CNCCCN1c2ccccc2CCc2ccccc21
inactive: dose: 3.12 mg/kg/injection, schedule: Q01DX009 (ip), vehicle: saline 123 % of control | dose: 5.0 mg/kg/injection, schedule: Q01DX001 (ip), vehicle: saline 105 % of control | dose: 6.25 mg/kg/injection, schedule: Q01DX009 (ip), vehicle: saline 115 % of control | dose: 10.0 mg/kg/injection, schedule: Q01DX001 (ip), vehicle: saline 100 % of control | dose: 12.5 mg/kg/injection, schedule: Q01DX009 (ip), vehicle: saline 115 % of control | dose: 20.0 mg/kg/injection, schedule: Q01DX001 (ip), vehicle: saline 111 % of control | dose: 25.0 mg/kg/injection, schedule: Q01DX009 (ip), vehicle: saline 110 % of control | dose: 25.0 mg/kg/injection, schedule: Q04DX003 (ip), vehicle: saline 101 % of control | dose: 40.0 mg/kg/injection, schedule: Q01DX001 (ip), vehicle: saline 95 % of control | dose: 50.0 mg/kg/injection, schedule: Q01DX009 (ip), vehicle: saline 106 % of control | dose: 50.0 mg/kg/injection, schedule: Q04DX003 (ip), vehicle: saline 97 % of control | dose: 80.0 mg/kg/injection, schedule: Q01DX001 (ip), vehicle: saline 92 % of control

O=S(=O)(c1ccc(NC(=S)NC(Cc2ccccc2)c2ccccc2)cc1)N1CCCCC1 (centres undefined)
inactive: dose: 100.0 mg/kg/injection, schedule: Q04DX003 (ip), vehicle: carboxymethylcellulose (CMC) 91 % of control | dose: 200.0 mg/kg/injection, schedule: Q04DX003 (ip), vehicle: carboxymethylcellulose (CMC) 89 % of control | dose: 400.0 mg/kg/injection, schedule: Q04DX003 (ip), vehicle: carboxymethylcellulose (CMC) 93 % of control

CCC(C)(C)c1cc(Sc2cc(C(C)(C)CC)cc(C(C)(C)CC)c2O)c(O)c(C(C)(C)CC)c1
inactive: dose: 100.0 mg/kg/injection, schedule: Q04DX003 (ip), vehicle: saline 109 % of control | dose: 200.0 mg/kg/injection, schedule: Q04DX003 (ip), vehicle: saline 100 % of control | dose: 400.0 mg/kg/injection, schedule: Q04DX003 (ip), vehicle: saline 88 % of control

CCCCCCCCCC1(C)OCC(COC(N)=O)O1 (centres undefined)
inactive: [1] 104 % of control | dose: 25.0 mg/kg/injection, schedule: Q04DX003 (ip), vehicle: Klucel (hydroxypropylcellulose) (HPC) 98 % of control | [2] 93 % of control | dose: 50.0 mg/kg/injection, schedule: Q04DX003 (ip), vehicle: Klucel (hydroxypropylcellulose) (HPC) 96 % of control | [3] 93 % of control | [4] 96 % of control | [5] 98 % of control | [6] 98 % of control | [7] 102 % of control | [8] 98 % of control

O=c1/c(=C/c2ccccc2)c2cccc3cccc1c32
inactive: dose: 25.0 mg/kg/injection, schedule: Q01DX001 (ip), vehicle: saline with Tween-80 97 % of control | dose: 50.0 mg/kg/injection, schedule: Q01DX001 (ip), vehicle: saline with Tween-80 93 % of control | dose: 100.0 mg/kg/injection, schedule: Q01DX001 (ip), vehicle: saline with Tween-80 97 % of control

CCCOC(=O)Nc1cccc(O)c1
inactive: [9] 92 % of control | [10] 94 % of control | [11] 88 % of control

COc1ccc2c(c1)CCC1=C2CCC2(C)C(=O)OC(=O)C12 (centres undefined)
inactive: [3] 103 % of control | [4] 102 % of control | [5] 97 % of control | [6] 93 % of control | [7] 101 % of control | [8] 111 % of control

CC1C(OC(=O)Cc2ccccc2)=CCC2C1(C)CCC1C2(C)CCC2(C)C3CC(C)(C)CCC3(C)CCC12C (centres undefined)
inactive: [12] 98 % of control | [13] 104 % of control | [14] 104 % of control

O=[N+]([O-])c1ccc(/C=C2\c3ccccc3-c3nc4ccccc4nc32)cc1
inactive: dose: 75.0 mg/kg/injection, schedule: Q01DX001 (ip), vehicle: saline 92 % of control | dose: 300.0 mg/kg/injection, schedule: Q01DX001 (ip), vehicle: saline 91 % of control

Cc1ccc(NS(=O)(=O)c2ccc(F)cc2)c(C)c1
inactive: [3] 94 % of control | [4] 100 % of control | [5] 94 % of control | [6] 97 % of control | [7] 101 % of control | [8] 101 % of control

O=S(=O)(O)c1ccncc1
inactive: [12] 96 % of control | dose: 100.0 mg/kg/injection, schedule: Q01DX009 (ip), vehicle: saline 96 % of control | [13] 91 % of control | dose: 200.0 mg/kg/injection, schedule: Q01DX009 (ip), vehicle: saline 87 % of control | [14] 88 % of control | dose: 400.0 mg/kg/injection, schedule: Q01DX009 (ip), vehicle: saline 96 % of control

COc1ccc2c3c1OC1CC(O)C=CC31CCN(C)C2 (centres undefined)
inactive: dose: 2.5 mg/kg/injection, schedule: Q01DX009 (ip), vehicle: saline 102 % of control | dose: 2.9 mg/kg/injection, schedule: Q01DX Z (ip), vehicle: saline 105 % of control | dose: 5.0 mg/kg/injection, schedule: Q01DX009 (ip), vehicle: saline 107 % of control

CCOC(=O)C(CCNC(=O)c1ccccc1)C(=O)OCC
inactive: [3] 103 % of control | [4] 93 % of control | [5] 91 % of control | [6] 95 % of control | [7] 89 % of control | [8] 93 % of control

OC(Cc1nccc2ccccc12)(C(F)(F)F)C(F)(F)F
inactive: [9] 93 % of control | [15] 100 % of control | [10] 93 % of control | [16] 101 % of control | [11] 94 % of control | [17] 100 % of control

CN(C)C1(Cc2ccccc2)c2ccccc2-c2ccc(Br)cc21 (centres undefined)
inactive: dose: 6.25 mg/kg/injection, schedule: Q01DX009 (ip), vehicle: saline with Tween-80 92 % of control | dose: 12.5 mg/kg/injection, schedule: Q01DX009 (ip), vehicle: saline with Tween-80 89 % of control | dose: 25.0 mg/kg/injection, schedule: Q01DX009 (ip), vehicle: saline with Tween-80 89 % of control | [9] 88 % of control

CC(Cl)(CCl)C(=O)O (centres undefined)
inactive: dose: 50.0 mg/kg/injection, schedule: Q01DX001 (ip), vehicle: saline 95 % of control | [12] 103 % of control

Cc1ccc(Nc2ccc(Nc3ccc(C)cc3)c3c2C(=O)c2ccccc2C3=O)cc1
inactive: [15] 86 % of control | [16] 87 % of control | [17] 92 % of control

NC(=O)NN=C1CCCCC1
inactive: dose: 12.5 mg/kg/injection, schedule: Q01DX009 (ip), vehicle: Klucel (hydroxypropylcellulose) (HPC) 97 % of control | [1] 97 % of control | [2] 102 % of control | dose: 70.0 mg/kg/injection, schedule: Q01DX009 (ip), vehicle: Klucel (hydroxypropylcellulose) (HPC) 87 % of control

NC(N)=Nc1ccc(C(=O)O)cc1
inactive: [9] 107 % of control | [10] 103 % of control

Cc1cc2cc3n(c2nn1)N=CCC3
inactive: dose: 100.0 mg/kg/injection, schedule: Q04DX002 (ip), vehicle: saline 106 % of control | dose: 200.0 mg/kg/injection, schedule: Q04DX002 (ip), vehicle: saline 103 % of control
